# According to patent US6992105B2, “Dipeptide derivatives” (Novartis AG, priority 2001, dated 2006):
# Ends that are not written are not given here.
# Biological target: angiotensin converting enzyme (ACE) (Homo sapiens, UniProt P12821)
# Assay: in vitro inhibition of ACE (hippuryl-histidyl-leucine substrate)
# Format: biochemical
# Conditions: ACE in vitro assay
# Description: In vitro testing is most appropriate for the free carboxylic acids of the invention. The test compound is dissolved in dimethyl sulfoxide, ethanol or 0.25 M sodium bicarbonate solution, and the solution is diluted with buffer to the desired concentration.
# The buffer for the ACE assay is 300 mM NaCl, 100 mM KH2PO4 (pH 8.3). The reaction is initiated by the addition of 100 μL of hippuryl-histidyl-leucine (2 mg/mL) to tubes containing enzyme and drug in a volume of 150 μL and tubes are incubated for 30 minutes at 37° C. The reaction is terminated by the addition of 0.75 mL 0.6 N NaOH. 100 μL of freshly prepared O-pthaldehyde solution (2 mg/mL in methanol) is added to the tubes, the contents are mixed and allowed to stand at room temperature. After 10 minutes, 100 μL of 6 N HCl is added. The tubes are centrifuged and the supernatant optical density is read at 360 nm. The results are plotted against drug concentration to determine the IC50, i.e., the drug concentration which gives half the activity of the control sample containing no drug.
# angiotensin converting enzyme (ACE), sequence (P12821 30-1306, species assumed): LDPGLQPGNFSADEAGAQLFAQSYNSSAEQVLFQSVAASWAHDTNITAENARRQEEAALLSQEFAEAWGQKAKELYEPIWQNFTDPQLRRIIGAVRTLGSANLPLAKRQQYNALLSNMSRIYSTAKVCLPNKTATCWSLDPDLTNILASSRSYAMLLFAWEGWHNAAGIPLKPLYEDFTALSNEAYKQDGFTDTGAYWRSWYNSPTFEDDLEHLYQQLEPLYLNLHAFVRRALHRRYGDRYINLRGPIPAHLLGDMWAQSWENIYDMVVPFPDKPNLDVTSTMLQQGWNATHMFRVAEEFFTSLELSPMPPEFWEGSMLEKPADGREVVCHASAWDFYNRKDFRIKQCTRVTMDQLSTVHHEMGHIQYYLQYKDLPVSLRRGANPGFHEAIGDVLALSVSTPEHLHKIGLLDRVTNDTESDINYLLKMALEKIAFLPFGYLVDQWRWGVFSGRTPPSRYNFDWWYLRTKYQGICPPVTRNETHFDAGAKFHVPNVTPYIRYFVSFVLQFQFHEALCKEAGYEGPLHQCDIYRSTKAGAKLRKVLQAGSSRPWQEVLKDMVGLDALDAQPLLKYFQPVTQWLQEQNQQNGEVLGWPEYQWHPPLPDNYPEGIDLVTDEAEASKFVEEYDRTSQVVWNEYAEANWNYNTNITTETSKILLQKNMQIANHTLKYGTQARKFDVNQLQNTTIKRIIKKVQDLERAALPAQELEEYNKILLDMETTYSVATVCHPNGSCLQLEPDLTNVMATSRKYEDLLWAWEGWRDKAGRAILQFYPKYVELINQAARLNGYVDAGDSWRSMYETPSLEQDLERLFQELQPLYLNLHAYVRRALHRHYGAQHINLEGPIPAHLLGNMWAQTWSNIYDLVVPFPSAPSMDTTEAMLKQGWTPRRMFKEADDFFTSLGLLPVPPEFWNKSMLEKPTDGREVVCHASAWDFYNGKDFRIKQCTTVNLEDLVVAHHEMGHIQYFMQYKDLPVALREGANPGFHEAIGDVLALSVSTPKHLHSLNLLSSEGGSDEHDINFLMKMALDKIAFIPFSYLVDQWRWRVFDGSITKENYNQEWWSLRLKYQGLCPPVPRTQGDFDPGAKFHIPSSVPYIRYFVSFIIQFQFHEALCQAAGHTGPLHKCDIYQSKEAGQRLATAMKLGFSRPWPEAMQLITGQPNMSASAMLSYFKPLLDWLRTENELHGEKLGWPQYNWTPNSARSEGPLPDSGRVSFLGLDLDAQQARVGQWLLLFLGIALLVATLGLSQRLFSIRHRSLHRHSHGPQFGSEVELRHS
row,IC50 [µM],Compound
1,~0.02,"CC(C)[C@H](S)C(=O)NC(C)(C)C(=O)N[C@@H](COCc1ccccc1)C(=O)O [Example 6(a), N-[2-[(S)-2-Mercapto-3-methylbutanoylamino]-2-methylpropionyl]-O-benzyl-L-serine]"

# Test system: not given
# Assay: not given
# Conditions: not given
row,melting point [°C],Compound
1,121 to 122,"CCOC(=O)[C@@H](NC(=O)C(C)(C)NC(=O)[C@@H](SC(C)=O)C(C)C)[C@@H](C)OCc1ccccc1 [Example 1(c), N-[2-[(S)-2-acetylthio-3-methylbutanoylamino]-2-methylpropionyl]-O-benzyl-L-threonine ethyl ester]"
2,106 to 107,"CCOC(=O)[C@H](COCc1ccccc1)NC(=O)C(C)(C)NC(=O)[C@@H](SC(=O)Cn1cncn1)C(C)C [Example 1(p), N-[2-[(S)-2-[(1-(1,2,4)-triazolyl)acetylthio]-3-methylbutanoylamino]-2-methylpropionyl]-O-benzyl-L-serine ethyl ester]"
3,95 to 96,"CCOC(=O)[C@H](COCc1ccccc1)NC(=O)C(C)(C)NC(=O)[C@@H](SC(=O)CN1CCN(C)CC1)C(C)C [Example 1(q), N-[2-[(S)-2-[(4-methylpiperazino)acetylthio]-3-methylbutanoylamino]-2-methylpropionyl]-O-benzyl-L-serine ethyl ester]"
4,132 to 136,"CC(C)[C@H](S)C(=O)NC1(C(=O)N[C@@H](COCc2ccccc2)C(=O)O)CCCC1 [Example 6(b), N-[1-[(S)-2-mercapto-3-methylbutanoylamino]-cyclopentanecarbonyl]-O-benzyl-L-serine]"
5,81 to 87,"CC(C)[C@H](S)C(=O)NC(C)(C)C(=O)N[C@@H](CSCc1ccccc1)C(=O)O [Example 6(c), N-[2-[(S)-2-mercapto-3-methylbutanoylamino]-2-methylpropionyl]-S-benzyl-L-cysteine]"
6,61 to 64,"CC(C)[C@H](S)C(=O)NC(C)(C)C(=O)N[C@H](C(=O)O)[C@@H](C)OCc1ccccc1 [Example 6(d), N-[2-[(S)-2-mercapto-3-methylbutanoylamino]-2-methylpropionyl]-O-benzyl-L-threonine]"
7,128 to 130,"CC(C)(NC(=O)[C@@H](S)C(C)(C)C)C(=O)N[C@@H](COCc1ccccc1)C(=O)O [Example 6(e), N-[2-[(S)-2-mercapto-3,3-dimethylbutanoylamino]-2-methylpropionyl]-O-benzyl-L-serine]"
8,50 to 54,"CC(C)[C@H](S)C(=O)NC(C)(C)C(=O)N[C@@H](COCc1ccc(F)cc1)C(=O)O [Example 6(f), N-[2-[(S)-2-mercapto-3-methylbutanoylamino]-2-methylpropionyl]-O-(4-fluorobenzyl)-L-serine]"
9,127 to 128,"CC(C)[C@H](S)C(=O)NC(C)(C)C(=O)N[C@@H](CCOc1ccc(F)cc1)C(=O)O [Example 6(g), N-[2-[(S)-2-mercapto-3-methylbutanoylamino]-2-methylpropionyl]-O-(4-fluorophenyl)-L-homoserine]"
10,50 to 56,"CC(C)[C@H](S)C(=O)NC(C)(C)C(=O)N[C@@H](CCOc1cccc(F)c1)C(=O)O [Example 6(h), N-[2-[(S)-2-mercapto-3-methylbutanoylamino]-2-methylpropionyl]-O-(3-fluorophenyl)-L-homoserine]"
11,184 to 189,"CC(C)(NC(=O)[C@@H](S)C1CCOCC1)C(=O)N[C@@H](COCc1ccccc1)C(=O)O [Example 6(j), N-[2-[(S)-2-mercapto-2-(4-tetrahydropyranyl)acetylamino]-2-methylpropionyl]-O-benzyl-L-serine]"

# Test system: angiotensin I induced pressor response (ACE)
# Assay: inhibition of the angiotensin I induced pressor response in normotensive rats
# Format: in vivo, rat
# Conditions: 10 mg/kg i.v., conscious normotensive rats
# Description: The in vivo test for i.v. administered compounds is performed with male, normotensive rats, which are conscious. A femoral artery and femoral vein are cannulated respectively for direct blood pressure measurement on i.v. administration of angiotensin I and i.v. or p.o. administration of a compound of this invention. After the basal blood pressure is stabilized, pressor responses to 3 or 4 challenges of 300 ng/kg angiotensin I i.v., at 15-minute intervals, are obtained. Such pressure responses are usually again obtained at 15, 30, 60 and 90 minutes, and then every hour up to 6 hours after i.v. or p.o. administration of the compound to be tested, and compared with the initial responses. Any observed decrease of said pressor response is an indication of ACE inhibition.
row,Compound,duration of inhibition of the angiotensin I induced pressor response [h]
1,"CC(C)[C@H](S)C(=O)NC(C)(C)C(=O)N[C@@H](COCc1ccccc1)C(=O)O [Example 6(a), N-[2-[(S)-2-Mercapto-3-methylbutanoylamino]-2-methylpropionyl]-O-benzyl-L-serine]",3

# Biological target: rabbit antibodies that recognize specifically the carboxyl terminal tryptophan of ET-1
# Assay: radioimmunoassay: displacement of [125I]ET-1 binding to anti-ET-1 antibodies
# Conditions: mean±SEM, n=3–5
# Description: Diluted samples (200 μL) obtained from the above enzyme assay are incubated at 4° C. overnight with 25 μL each of [^125I]ET-1 (10,000 cpm/tube) and 1:20,000-fold diluted rabbit antibodies that recognize specifically the carboxyl terminal tryptophan of ET-1. Goat anti-rabbit antibodies coupled to magnetic beads (70 μg) are then added to each tube, and the reaction mixture is further incubated for 30 minutes at room temperature. The beads are pelleted using a magnetic rack. The supernatant is decanted, and the radioactivity in the pellet is counted in a gamma counter. Total and nonspecific binding are measured in the absence of non-radioactive ET-1 and anti-ET antibodies, respectively.
row,IC50 for displacement of [125I]ET-1 binding to the antibodies,Compound
1,21 ± 2 fmol,"ET-1: endothelin-1, non-radioactive peptide formed from big ET-1 by ECE; standard in the RIA"
2,"260,000±66,000 fmol","big ET-1: human big ET-1, substrate of ECE-1 in the enzyme assay (CSCSSLMDKECVYFCHLDIIWVNTPEHVVPYGLGSPRS; ends and bridges not checked; cysteine pairing not given here; UniProt P05305 53-90, looked up)"

# Biological target: T1, NEP (EC 3.4.24.11) (Rattus norvegicus, UniProt P07861)
# T1 construct: protein (rat kidney cortex membranes prepared by method of Maeda et al., 1983); from tissue; host or cells: rat kidney cortex membranes
# T1 sequence (P07861 1-750): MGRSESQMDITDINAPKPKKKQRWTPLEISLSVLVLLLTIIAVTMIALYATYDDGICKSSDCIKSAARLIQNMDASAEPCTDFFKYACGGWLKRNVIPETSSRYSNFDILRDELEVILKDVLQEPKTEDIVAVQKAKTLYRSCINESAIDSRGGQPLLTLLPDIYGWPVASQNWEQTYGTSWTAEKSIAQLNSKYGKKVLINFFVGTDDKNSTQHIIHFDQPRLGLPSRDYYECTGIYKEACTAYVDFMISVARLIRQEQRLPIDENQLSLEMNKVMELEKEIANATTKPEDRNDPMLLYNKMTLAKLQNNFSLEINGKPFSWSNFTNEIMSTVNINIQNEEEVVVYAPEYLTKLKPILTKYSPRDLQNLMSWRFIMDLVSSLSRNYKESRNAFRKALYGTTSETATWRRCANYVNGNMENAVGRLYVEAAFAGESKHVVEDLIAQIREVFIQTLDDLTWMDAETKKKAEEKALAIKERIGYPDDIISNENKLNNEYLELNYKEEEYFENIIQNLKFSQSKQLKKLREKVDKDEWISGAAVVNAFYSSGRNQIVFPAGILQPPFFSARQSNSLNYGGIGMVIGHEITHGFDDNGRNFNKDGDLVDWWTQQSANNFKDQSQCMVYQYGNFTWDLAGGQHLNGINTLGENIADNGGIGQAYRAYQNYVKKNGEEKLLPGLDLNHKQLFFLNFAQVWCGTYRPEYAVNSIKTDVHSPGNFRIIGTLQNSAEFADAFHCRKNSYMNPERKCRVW
# Assay: in vitro inhibition of NEP (GAAP substrate, rat kidney cortex membranes)
# Format: biochemical
# Conditions: substrate glutaryl-Ala-Ala-Phe-2-naphthylamide (GAAP)
# Description: The in vitro inhibition of NEP (EC 3.4.24.11) can be determined as follows:
# NEP 3.4.24.11 activity is determined by the hydrolysis of the substrate glutaryl-Ala-Ala-Phe-2-naphthylamide (GAAP) using a modified procedure of Orlowski and Wilk (1981). The incubation mixture (total volume 125 μL) contains 4.2 μL of protein (rat kidney cortex membranes prepared by method of Maeda et al., 1983), 50 mM tris buffer, pH 7.4 at 25° C., 500 μM substrate (final concentration), and leucine aminopeptidase M (2.5 μg). The mixture is incubated for 10 minutes at 25° C., and 100 μL of fast garnet (250 μg fast garnet/mL of 10% Tween 20 in 1 M sodium acetate pH 4.2) is added. Enzyme activity is measure spectrophotometrically at […]. One unit of NEP 24.11 activity is defined as 1 nmol of 2-naphthylamine released per minute at 25° C. at pH 7.4. IC50 values are determined, i.e., the concentration of test compound required for 50% inhibition of the release of 2-naphthylamine.
# NEP activity can also be determined using ANF as a substrate. ANF degrading activity is determined by measuring the disappearance of rat-ANF (r-ANF) using a 3-minute reverse phase-HPLC separation. An aliquot of the enzyme in 50 mM tris HCl buffer, pH 7.4, is pre-incubated at 37° C. for 2 minutes and the reaction is initiated by the addition of 4 nmol of r-ANF in a total volume of 50 μL. […]
row,IC50 [µM],Compound
1,~0.005,"CC(C)[C@H](S)C(=O)NC(C)(C)C(=O)N[C@@H](COCc1ccccc1)C(=O)O [Example 6(a), N-[2-[(S)-2-Mercapto-3-methylbutanoylamino]-2-methylpropionyl]-O-benzyl-L-serine]"
